Each structure is given as a SMILES string. Values after ≈ are worked out from the molar mass of the structure shown.

For the data set the following is noted: buffer; pH 7.4; 200.0 µM.
Take `CC12CCC(C(=O)Nc3ccc(Br)cn3)(OC1=O)C2(C)C` (configuration not stated): the solubility (kinetic) (usually solubility judged after dilution from a stock solution rather than from solid) was more than 53 µg/mL.
The compound `Cc1cccc(NS(=O)(=O)c2ccc3[nH]c(=O)oc3c2)c1C` displayed a solubility (kinetic) of 41.9 µg/mL (≈ 132 µM).
For `CCn1cc(C(=S)N2CCC(C(N)=O)CC2)c2ccccc21` the value was 38.7 µg/mL (≈ 123 µM); for `CC(=O)N(Cc1cccs1)Cc1cc2cc(C)c(C)cc2nc1Cl`, 4.3 µg/mL (≈ 12 µM); for `CCC(=O)c1cn(CC(=O)Nc2cccc(C)c2C)c2ccccc12`, less than 0.4 µg/mL.
The compound `CC(=O)c1ccc(NC(=O)C(C)Sc2nnc(-c3ccncc3)n2C2CC2)cc1` (configuration not stated) returned a kinetic solubility of more than 61.1 µg/mL.
For `COc1ccc(C(=O)OCC(=O)N2CCCC2=O)c(OC)c1` the value was 40.3 µg/mL (≈ 131 µM); for `CCOC(=O)c1sc(-c2ccc(Cl)cc2Cl)nc1O`, 28.2 µg/mL (≈ 88.6 µM); for `CC(=O)Nc1ccc2nc(-c3cccn3C)[nH]c2c1`, 33.4 µg/mL (≈ 131 µM).
In the case of `COCCNC(=O)CN1C2CCC1CC(O)(c1cccnc1)C2` (configuration not stated) it was more than 47.9 µg/mL; in that of `CCOc1ccc(Nc2ccc(N3C(=O)CCC3=O)cc2[N+](=O)[O-])cc1`, 2.3 µg/mL (≈ 6.47 µM); in that of `CCOc1ccc(Cl)cc1/C=C1/C(=O)ON=C1C`, 29.3 µg/mL (≈ 110 µM).
In the case of `CCCn1c(N)c(C(=O)CN2CCc3ccccc3C2)c(=O)n(C)c1=O` it was more than 53.5 µg/mL; in that of `CC(=O)c1c(C)nc2ccc([N+](=O)[O-])cc2c1-c1ccccc1`, 21.9 µg/mL (≈ 71.5 µM).
Regarding `Cc1ccc(OCC(=O)NCCNC(=O)c2ccncc2)cc1`, the solubility (kinetic) was 45.1 µg/mL (≈ 144 µM). Against the preceding compound, the solubility kinetic is about 2.1-fold higher.
For `O=C(O)c1ccccc1CSc1ncccc1C(=O)O` the value was more than 43.4 µg/mL.
For `CC[N+](C)(C)Cc1ccccc1Br.Cc1ccc(S(=O)(=O)[O-])cc1` the value was more than 62.2 µg/mL; for `CCOC(=O)c1ccc2c(c1)N(C)C(=O)c1ccccc1S2`, 7.7 µg/mL (≈ 24.6 µM); for `CC(C)Oc1ccc(C(=O)NCCNC(=O)c2ccco2)cc1`, more than 47.5 µg/mL.
In the case of `Cc1ccsc1C(=O)OCC(=O)c1cc(C)n(C)c1C` it was 3.7 µg/mL (≈ 12.7 µM); in that of `COc1ccc2cc(C#N)c(Nc3cccc(F)c3)nc2c1`, less than 0.2 µg/mL.
On to `O=C(CSc1ccc([N+](=O)[O-])cn1)Nc1ccc2c(c1)OCCO2`, for which the kinetic solubility came out at 0.7 µg/mL (≈ 2.02 µM).
For `COc1ccc(NS(=O)(=O)c2cc(NC(=O)c3ccc(Cl)cc3)ccc2N2CCOCC2)cc1` the value was 1.5 µg/mL (≈ 2.99 µM).
On to `COc1ccc(Nc2nc(C)cc(C)c2C#N)c(OC)c1`, for which the kinetic solubility was less than 0.2 µg/mL.
For `C[C@@H](C(=O)Nc1nccs1)N1C(=O)C2CC=CCC2C1=O` (some centres not stated) the value was 42.8 µg/mL (≈ 140 µM).
As for `O=C(NCc1ccccn1)c1cccc(S(=O)(=O)N2CCc3ccccc32)c1`, the solubility (kinetic) was determined as 21 µg/mL (≈ 53.4 µM).
For `CCC1(CC)NC(=O)N(CC(=O)N2CCc3ccccc32)C1=O`, the solubility (kinetic) is 45.8 µg/mL (≈ 145 µM).
In the case of `CN(C)C(=O)C(OC(=O)c1ccc2ccccc2n1)c1ccccc1` (configuration not stated) it was more than 50.2 µg/mL.
In the case of `O=C(COC(=O)C1CC2C=CC1C2)Nc1c(Br)cc([N+](=O)[O-])cc1Br` (configuration not stated) it was 57.2 µg/mL (≈ 121 µM); in that of `CSc1nccc(NC(=O)c2cccc(Br)c2)n1`, 2.5 µg/mL (≈ 7.71 µM); in that of `CN(CC1COc2ccccc2O1)C(=O)CSc1nncs1` (configuration not stated), more than 50.6 µg/mL.
For `CC(C)CC(=O)N1CCN(Cc2cccc([N+](=O)[O-])c2)CC1` the value was 33.2 µg/mL (≈ 109 µM); for `COc1ccc(CNC(=O)c2cccc(NC(=O)CC3SC(N4CCCCC4)=NC3=O)c2)cc1` (configuration not stated), 7.6 µg/mL (≈ 15.8 µM).
In turn, `CC1CCCCN1C(=O)COC(=O)Cc1c[nH]c2ccccc12` (configuration not stated) returned a kinetic solubility of more than 47.2 µg/mL.
The compound `CC(C)N=c1cc2n(-c3ccc(Cl)cc3)c3ccccc3nc-2cc1Nc1ccc(Cl)cc1` displayed a solubility (kinetic) of 0.3 µg/mL (≈ 0.634 µM).
For `Cc1ccc(CNC(=O)C2COc3ccccc3O2)cc1` (configuration not stated) the value was 20.1 µg/mL (≈ 70.9 µM); for `CC(OC(=O)/C=C/c1cccc(F)c1)C(=O)NC1CCCCC1C` (configuration not stated), 1.9 µg/mL (≈ 5.7 µM).
Regarding `NC(=O)C1CCN(CC(=O)Nc2nccs2)CC1`, the solubility (kinetic) stood at 38.4 µg/mL (≈ 143 µM).
For `COc1cccc(C(=O)NCc2ccc3[nH]c(C)cc3c2)c1` the value was 15.8 µg/mL (≈ 53.7 µM); for `CC(C)(C)c1ccc(Oc2ncccc2NC(=O)c2cccs2)cc1`, less than 0.4 µg/mL.
In the case of `Cc1nc2ccccc2nc1Nc1cccc(Cl)c1` it was 20.2 µg/mL (≈ 74.9 µM); in that of `CC1(C)CC(NC(=O)c2cccc(F)c2)CC(C)(C)N1`, 40.8 µg/mL (≈ 147 µM).
For `CC1(C)CC(=O)N(c2ccc(Cl)cc2Cl)C(=O)C1` the value was more than 42.9 µg/mL.
`CC(=O)N(/C=C1\SC(=S)N(c2ccccc2)C1=O)c1ccccc1` registered a kinetic solubility of 10 µg/mL (≈ 28.2 µM).
Take `Cc1ccc(S(=O)(=O)CC(=O)N2CCOCC2)cc1`: the kinetic solubility was more than 42.5 µg/mL.
For `Cc1ccc(C)c(S(=O)(=O)N2CCNCC2)c1` the value was more than 38.2 µg/mL.
For `O=[N+]([O-])c1cc([N+](=O)[O-])c2cc3ccccc3nc2c1` the value was 0.2 µg/mL (≈ 0.743 µM).
In the case of `COC(=O)C1CCN(C(=O)c2ccc3nccnc3c2)CC1` it was more than 44.9 µg/mL; in that of `O=C(Nc1cc2c3c(c1)CC(=O)N3CCC2)c1ccccc1F`, 46.4 µg/mL (≈ 150 µM); in that of `O=C(C1CC(=O)N(c2ccc(F)cc2)C1)N1CCOCC1` (configuration not stated), 41.5 µg/mL (≈ 142 µM).
Consider `Cc1ccc(CNC(=O)/C=C/C(=O)O)cc1`, for which the solubility (kinetic) is more than 32.9 µg/mL.
Compound `S=C(NCCc1ccccc1)N1CCOCC1` showed a solubility (kinetic) of more than 37.6 µg/mL.
Take `CC(C)(C)C(=O)NC(c1ccccc1)c1c(O)ccc2ccccc12` (configuration not stated): the kinetic solubility was found to be 0.9 µg/mL (≈ 2.7 µM).
`Cc1cc2c(cc1S(=O)(=O)N1CCOCC1)NC(=O)CO2`: the kinetic solubility is more than 46.9 µg/mL.
For `CS(=O)(=O)Nc1ccc(-c2cn3cccnc3n2)cc1` the value was more than 43.2 µg/mL; for `COc1ccc(NC(=O)CC(=O)Nc2ccc(OC)cc2)cc1`, 1.2 µg/mL (≈ 3.82 µM); for `Cc1onc(-c2c(F)cccc2Cl)c1C(=O)N1CCSCC1`, more than 51.1 µg/mL.
`CCS(=O)c1ccccc1C(=O)OCC(=O)Nc1ccc2ccccc2c1` (configuration not stated) yielded a kinetic solubility of 45.8 µg/mL (≈ 120 µM).
In the case of `Cc1ccc(CNC(=O)Nc2ccccc2)c(C)c1`, the kinetic solubility came out at 0.7 µg/mL (≈ 2.75 µM).
For `COc1ccc(/C=C2/NC(=O)CNC2=O)cc1` the value was more than 34.8 µg/mL; for `CC(C(=O)NC1CCCCCC1)n1cc([N+](=O)[O-])cn1` (configuration not stated), more than 42 µg/mL; for `Cc1cc(C(=O)O)ccc1-n1c(C)cc(/C=C2\SC(=O)NC2=O)c1C`, more than 53.5 µg/mL.
In the case of `CC(C(=O)C12CC3CC(CC(C3)C1)C2)N1CCOCC1.Cl` (configuration not stated) it was more than 47.1 µg/mL; in that of `Cc1cc(=O)[nH]c(SCC(=O)NC2CCCc3ccccc32)n1` (configuration not stated), 32.1 µg/mL (≈ 97.4 µM); in that of `O=C(NCCN1CCCCC1)c1ccc(F)cc1Cl`, more than 42.7 µg/mL.
For `CCOC(=O)NN1C(=O)c2ccccc2NC1c1cccnc1` (configuration not stated) the value was more than 46.8 µg/mL; for `Cc1cccc(C)c1NC(=O)C1C2C=CC(C2)C1C(=O)O` (configuration not stated), 39.7 µg/mL (≈ 139 µM); for `O=S(=O)(NC1C2CC3CC(C2)CC1C3)c1ccc(F)cc1` (configuration not stated), 23 µg/mL (≈ 74.3 µM).
`CCCC(=O)N(Cc1cc(=O)[nH]c2ccccc12)c1ccccc1` yielded a solubility (kinetic) of more than 48.1 µg/mL.
In the case of `CN1CCN(c2nc3ccccc3o2)CC1` it was more than 32.6 µg/mL; in that of `CC(C(=O)Nc1ccc(C#N)cc1)N(C)CC(=O)N(C)c1c(N)n(Cc2ccccc2)c(=O)[nH]c1=O` (configuration not stated), more than 73.4 µg/mL.
For `O=C(COC(=O)CCSc1ccccc1)Nc1ccccc1Br` the value was 18.2 µg/mL (≈ 46.2 µM).

The record behind these values is PubChem BioAssay AID1996.
